The text below walks through data of patent publication US10954221B2, “GLP-1R agonists and uses thereof” (QILU REGOR THERAPEUTICS INC., priority 2019, dated 2021).

As a reminder, the EC50 is the midpoint of the concentration-response curve.

The target of experiment [1] is T1, GLP1R (Homo sapiens, UniProt P43220). On the set-up: Emax: dose or concentration left out as unconfirmed. Particulars: for Emax: CHO-K1, […], read-out: β-arrestin recruitment Bmax (%).
Target sequence in this assay (P43220 24-463): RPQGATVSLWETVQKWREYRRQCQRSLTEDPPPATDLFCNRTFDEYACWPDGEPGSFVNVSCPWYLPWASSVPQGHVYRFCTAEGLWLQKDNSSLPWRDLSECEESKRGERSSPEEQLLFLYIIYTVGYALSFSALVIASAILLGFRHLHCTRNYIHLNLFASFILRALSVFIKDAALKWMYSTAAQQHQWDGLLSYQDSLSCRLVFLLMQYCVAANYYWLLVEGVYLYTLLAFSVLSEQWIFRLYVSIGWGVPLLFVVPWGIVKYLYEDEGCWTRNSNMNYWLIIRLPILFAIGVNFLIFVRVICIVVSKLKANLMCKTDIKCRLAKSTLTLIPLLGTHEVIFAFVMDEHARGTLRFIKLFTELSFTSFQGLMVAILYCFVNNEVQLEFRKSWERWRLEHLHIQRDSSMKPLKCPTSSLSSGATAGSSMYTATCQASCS
Target sequence in this assay (P32121 whole entry partner): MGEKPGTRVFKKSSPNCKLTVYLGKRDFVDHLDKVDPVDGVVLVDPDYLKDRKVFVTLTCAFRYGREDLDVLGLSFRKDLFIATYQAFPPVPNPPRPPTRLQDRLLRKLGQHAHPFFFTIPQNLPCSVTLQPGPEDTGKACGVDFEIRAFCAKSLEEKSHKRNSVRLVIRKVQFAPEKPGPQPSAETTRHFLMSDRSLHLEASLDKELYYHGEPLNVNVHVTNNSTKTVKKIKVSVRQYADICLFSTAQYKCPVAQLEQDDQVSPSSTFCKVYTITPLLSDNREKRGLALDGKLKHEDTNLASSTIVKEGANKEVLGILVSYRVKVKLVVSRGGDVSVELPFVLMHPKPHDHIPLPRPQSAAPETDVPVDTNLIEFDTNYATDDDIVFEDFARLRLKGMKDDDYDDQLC
Protocol: Frozen cells were quickly thawed and 10 mL of cell plating medium (provided by the kit) was added to thawed cells. Cells were stored in a 37° C. incubator under 5% CO2 and kept for approximately 48 hours until ready to run the assay.
Reference and test compounds were dissolved in 100% DMSO. […] 5 μL of this solution was added to 20 μL cell medium in assay plate for a final top concentration of 10 μM. Plates were then incubated at 37° C. under 5% CO2 for 90 min.
Following 90 min incubation, detection reagents were made up by combining 1 part Galacton Star Substrate with 5 parts Emerald II™ Solution, and 19 parts of PathHunter Cell Assay Buffer, respectively. 12.5 μl detection reagent was added to each well. The plates were then incubated at room temperature in dark for 60 min. Plates were then read on Envision for 0.1 sec/well.
Cells were plated at a density of 1000 or 2000 cells/20 μL/well. Frozen cells were quickly thawed and added to 10 mL of cell plating medium. Cells were stored in a 37 degree incubator under 5% CO2 and left for approximately 48 hours until ready to run the assay
Prepare 10× concentration of an agonist in serum free DMEM, and add all solutions into the compound plate. 2.5 μL of this solution was added to 20 μL cell medium in assay plate for a final top concentration of 10 μM. Plates were incubated at 37° C. under 5% CO2 for 30 min. An additional 2.5 μL of Buffer was added to the entire plate for agonist mode and incubated at 37° C. for another 90 min.
Following 90 min incubation, detection reagents were made up as described. 12.5 μL was added to all wells. The plates were then incubated at room temperature in dark for 60 min. Plates were then read on Envision for 0.1 sec/well.
Data analysis: GraphPad Prism 6 was used for establishment of progression curve. EC50s or IC50s were determined by 4-parameter logistic dose response equation.
For experiment [2], the target named is T1, GLP1R. Kind of experiment: GLP1R cAMP assay (HTRF), HEK293/GLP-1R/CRE/Luc, Clone 4. A general note: cAMP levels reflect the balance of adenylyl cyclase and phosphodiesterase activity.
Target sequence in this assay (P43220 24-463): as the sequence (P43220 24-463) above
Protocol: GLP-1R-mediated agonist activity was determined with a cell-based functional assay utilizing an HTRF (Homogeneous Time-Resolved Fluorescence) cAMP detection kit (cAMP Dynamic 2 Assay Kit; CisBio cat #62AM4PEC) that measures cAMP levels in the cell. The method is a competitive immunoassay between native cAMP produced by the cells and exogenous cAMP labeled with the dye d2. The tracer binding is visualized by a mAb anti-cAMP labeled with Cryptate. The specific signal (i.e., energy transfer) is inversely proportional to the concentration of cAMP in either standard or experimental sample.
The human GLP-1R coding sequence (NCBI Reference Sequence NM_002062) was subcloned into pcDNA3.1+/Hygro vector (Invitrogen) and transfected into HEK293/CRE/Luc parental cell line. A cell line stably expressing the receptor was isolated.
Varying concentrations of each compound to be tested (in DMSO) were diluted in DMSO to obtain 200× compound working solution first and then 50 nl compounds were added to a white 384-well assay plate (Greiner 784075) with ECHO. The final DMSO concentration was 0.5%.
Cells were removed from cryopreservation, re-suspended in 5 mL of Dulbecco's Phosphate Buffered Saline (DPBS-Sigma Cat #D8537) and centrifuged at 900×g for 5 min at 22° C. The cell pellet was then re-suspended in 1 mL of assay buffer [DPBS with 500 μM IBMX (Sigma #15879) and 0.1% BSA (Sigma #A1933). IBMX and BSA were freshly added on the day of assay]. A 10 μL sample of the cell suspension was counted on an Invitrogen Countess II to determine cell viability and cell count per mL. The remaining cell suspension was then adjusted with assay buffer to deliver 1000 viable cells per well using a Matrix Combi Multidrop reagent dispenser. 10 μL cell suspensions were added to each well
of the assay plate which already contains compound. The plate was sealed and incubated at 37° C. with 5% CO2 for 30 minutes.
Following the 30 minute incubation, 5 μL of labeled d2 cAMP and 5 μL of anti-cAMP antibody (both diluted 1:20 in cell lysis buffer; as described in the manufacturer's assay protocol) were added to each well of the assay plate. The plates were then incubated at room temperature and after 60 minutes, changes in the HTRF signal were read with an Envision multi-label plate reader using excitation of 330 nm and emissions of 615 and 665 nm. Raw data were converted to nM cAMP by interpolation from a cAMP standard curve (as described in the manufacturer's assay protocol) and the percent effect was determined relative to a saturating concentration of the full agonist GLP-17-37 (10 nM) included on each plate. EC50 determinations were made from agonist dose-response curves analyzed with a curve fitting program using a 4-parameter logistic dose response equation.
The target of experiment [3] is T1, GLP1R. Nature of the experiment: β-Arrestin-mediated GLP1R internalization assay (PathHunter U2OS cells). Also noted: host or cells: PathHunter engineered U2OS cells. It counts as cell-based. Particulars: averaged Bmax where applicable, Percentage of Control GLP-1 (7-37), top 10 μM, 180 min. From the text: A similar assay can also be used to assess the extent of signal attenuation due to GLP-1R internalization (the Internalization Assay). In this assay, activated GLP1R Internalization cells were engineered to co-express an untagged GLP1R, Enzyme Acceptor (EA) tagged β-Arrestin, and a ProLink™ (PK) tag localized to the endosomes. Activation of the GLP1R induces β-Arrestin recruitment, which leads to internalization of the Receptor/Arrestin-EA complex in PK-tagged endosomes. This forces complementation of the two β-galactosidase enzyme fragments (EA and PK) to form a functional enzyme that hydrolyzes substrate to generate a chemiluminescent signal.
Frozen cells were quickly thawed and 10 mL of cell plating medium (provided by the kit) was added to thawed cells. Cells were stored in a 37° C. incubator and kept for approximately 48 hours until ready for the assay.
Reference and test compounds were dissolved in 100% DMSO. […] 5 μL of this solution was added to 20 μL cell medium in assay plate for a final top concentration of 10 μM. Plates were incubated at 37° C. for 180 min.
Following 180 min incubation, detection reagents were made up by combining 1 part Galacton Star Substrate with 5 parts Emerald II™ Solution, and 19 parts of PathHunter Cell Assay Buffer, respectively. 12.5 μL detection reagent was added to each well. The plates were then incubated at room temperature for 60 min. Plates were then read on Envision for 0.1 sec/well.
EC50 determinations were made from agonist dose-response curves analyzed with a curve fitting program using a 4-parameter logistic dose response equation.
Target sequence in this assay (P43220 24-463): as above
Target sequence in this assay (P32121 whole entry partner): as the sequence (P32121 whole entry partner) above

In the case of `O=C(O)c1ccc2nc(Cc3ccc(-c4cccc(OCc5ccc(Cl)cc5F)n4)c(F)c3F)n(C[C@@H]3CCO3)c2c1` [Compound 262, (S)-2-(4-(6-(4-chloro-2-fluorobenzyloxy)pyridin-2-yl)-2,3-difluorobenzyl)-1-(oxetan-2-ylmethyl)-1H-benzo[d]imidazole-6-carboxylic acid], the Emax at GLP1R [1] worked out at 47.3 ± 4.55%. Besides, the EC50 on GLP1R [2] is less than 15 nM. For the same molecule, the “β-arrestin internalization Bmax (POC)” value at GLP1R [3] came to 25.4 ± 1.39 POC.

Regarding `O=C(O)c1ccc2nc(Cc3ccc(-c4cccc(OCc5ccc(F)cc5F)n4)c(F)c3)n(C[C@@H]3CCO3)c2n1` [Compound 290, (S)-2-(4-(6-((2,4-difluorobenzyl)oxy)pyridin-2-yl)-3-fluorobenzyl)-3-(oxetan-2-ylmethyl)-3H-imidazo[4,5-b]pyridine-5-carboxylic acid], the Emax at GLP1R [1] amounted to 39.9 ± 4.4%. The EC50 at GLP1R [2] was less than 15 nM. For the same molecule, at GLP1R [3], the “β-arrestin internalization Bmax (POC)” value was 21.6 ± 3.52 POC.

`O=C(O)c1ccc2nc(Cc3ccc(-c4ccnc(OCc5ccc(Cl)cc5F)n4)c(F)c3)n(C[C@@H]3CCO3)c2c1` [Compound 80, (S)-2-(4-(2-((4-chloro-2-fluorobenzyl)oxy)pyrimidin-4-yl)-3-fluorobenzyl)-1-(oxetan-2-ylmethyl)-1H-benzo[d]imidazole-6-carboxylic acid]: on GLP1R [1], the Emax stood at 31.6%. Also, at GLP1R [2], the EC50 is less than 15 nM. On GLP1R [3], the “β-arrestin internalization Bmax (POC)” value worked out at 21.2 POC.

Turning to `O=C(O)c1ccc2nc(Cc3ccc(-c4ncc(F)c(OCc5ccc(Cl)cc5F)n4)cc3F)n(C[C@@H]3CCO3)c2c1` [Compound 90, (S)-2-(4-(4-((4-chloro-2-fluorobenzyl)oxy)-5-fluoropyrimidin-2-yl)-2-fluorobenzyl)-1-(oxetan-2-ylmethyl)-1H-benzo[d]imidazole-6-carboxylic acid], on GLP1R [1], the Emax was found to be 29.5 ± 3.21%. This molecule also showed an EC50 at GLP1R [2] of less than 15 nM. Moreover, the “β-arrestin internalization Bmax (POC)” value at GLP1R [3] is listed as 21.6 POC.

In the case of `O=C(O)c1ccc2nc(Cc3ccc(-c4ccc(F)c(OCc5ccc(Cl)cc5F)n4)cc3F)n(C[C@@H]3CCO3)c2c1` [Compound 88, (S)-2-(4-(6-(4-chloro-2-fluorobenzyloxy)-5-fluoropyridin-2-yl)-2-fluorobenzyl)-1-(oxetan-2-ylmethyl)-1H-benzo[d]imidazole-6-carboxylic acid], the Emax at GLP1R [1] is 44.6%. Moreover, the EC50 on GLP1R [2] was less than 15 nM. Besides, the “β-arrestin internalization Bmax (POC)” value at GLP1R [3] was 29.2 POC.

Regarding `O=C(O)c1ccc2nc(Cc3ccc(-c4cccc(OCc5ccc(Cl)cc5F)c4)cc3F)n(C[C@@H]3CCO3)c2c1` [Compound 89, (S)-2-((3′-((4-chloro-2-fluorobenzyl)oxy)-3-fluoro-[1,1′-biphenyl]-4-yl)methyl)-1-(oxetan-2-ylmethyl)-1H-benzo[d]imidazole-6-carboxylic acid], the Emax at GLP1R [1] stood at 25.3%. Further, the EC50 on GLP1R [2] was less than 15 nM. Besides, the “β-arrestin internalization Bmax (POC)” value at GLP1R [3] amounted to 20.0 POC.

`O=C(O)c1ccc2nc(Cc3ccc(-c4ncc(F)c(OCc5ccc(Cl)cc5F)n4)c(F)c3)n(C[C@@H]3CCO3)c2c1` [Compound 81, (S)-2-(4-(4-(4-chloro-2-fluorobenzyloxy)-5-fluoropyrimidin-2-yl)-3-fluorobenzyl)-1-(oxetan-2-ylmethyl)-1H-benzo[d]imidazole-6-carboxylic acid]: the Emax on GLP1R [1] amounted to 37.2%. Further, the concentration for a half-maximal effect (EC50) at GLP1R [2] is less than 15 nM. Moreover, the “β-arrestin internalization Bmax (POC)” value on GLP1R [3] is reported as 30.6 POC.

`O=C(O)c1ccc2nc(Cc3ccc(-c4ccc(F)c(OCc5ccc(Cl)cc5F)n4)c(F)c3)n(C[C@@H]3CCO3)c2c1` [Compound 83, (S)-2-(4-(6-((4-chloro-2-fluorobenzyl)oxy)-5-fluoropyridin-2-yl)-3-fluorobenzyl)-1-(oxetan-2-ylmethyl)-1H-benzo[d]imidazole-6-carboxylic acid]: the Emax on GLP1R [1] is 44.6%. The same molecule returned an EC50 at GLP1R [2] of less than 15 nM. Moreover, on GLP1R [3], the “β-arrestin internalization Bmax (POC)” value turned out to be 27.8 POC.

Turning to `O=C(O)c1ccc2nc(Cc3ccc(-c4ccc(F)c(OCc5ccc(Cl)cc5F)c4)c(F)c3)n(C[C@@H]3CCO3)c2c1` [Compound 78, (S)-2-((3′-((4-chloro-2-fluorobenzyl)oxy)-2,4′-difluoro-[1,1′-biphenyl]-4-yl)methyl)-1-(oxetan-2-ylmethyl)-1H-benzo[d]imidazole-6-carboxylic acid], the Emax on GLP1R [1] is 22.7%. This molecule displayed an EC50 at GLP1R [2] of less than 15 nM. The “β-arrestin internalization Bmax (POC)” value on GLP1R [3] amounted to 7.49 POC.

As for `N#Cc1ccc(COc2ncc(F)c(-c3ccc(Cc4nc5ccc(C(=O)O)nc5n4C[C@@H]4CCO4)c(F)c3)n2)c(F)c1` [Compound 291, (S)-2-(4-(2-((4-cyano-2-fluorobenzyl)oxy)-5-fluoropyrimidin-4-yl)-2-fluorobenzyl)-3-(oxetan-2-ylmethyl)-3H-imidazo[4,5-b]pyridine-5-carboxylic acid], the Emax at GLP1R [1] came out at 29.4 ± 6.84%. On GLP1R [2], this molecule showed an EC50 of less than 15 nM. In addition, the “β-arrestin internalization Bmax (POC)” value on GLP1R [3] worked out at 22.8 ± 0.142 POC.

For `O=C(O)c1ccc2nc(Cc3ccc(-c4ccc(F)c(OCc5ccc(F)cc5F)n4)c(F)c3)n(C[C@@H]3CCO3)c2n1` [Compound 267, (S)-2-(4-(6-(2,4-difluorobenzyloxy)-5-fluoropyridin-2-yl)-3-fluorobenzyl)-3-(oxetan-2-ylmethyl)-3H-imidazo[4,5-b]pyridine-5-carboxylic acid], at GLP1R [1], the Emax came to 41.7 ± 3.45%. This molecule also showed an EC50 at GLP1R [2] of less than 15 nM. The “β-arrestin internalization Bmax (POC)” value on GLP1R [3] worked out at 30.2 ± 6.53 POC.

As to `O=C(O)c1ccc2nc(Cc3ccc(-c4ccnc(OCc5ccc(Cl)cc5F)n4)cc3F)n(C[C@@H]3CCO3)c2c1` [Compound 87, (S)-2-(4-(2-((4-chloro-2-fluorobenzyl)oxy)pyrimidin-4-yl)-2-fluorobenzyl)-1-(oxetan-2-ylmethyl)-1H-benzo[d]imidazole-6-carboxylic acid], the Emax on GLP1R [1] was 33.1%. On GLP1R [2], the EC50 was less than 15 nM. For the same molecule, the “β-arrestin internalization Bmax (POC)” value on GLP1R [3] is given as 23.9 POC.

As to `O=C(O)c1ccc2nc(Cc3ccc(-c4nc(OCc5ccc(Cl)cc5F)c(F)cc4F)c(F)c3)n(C[C@@H]3CCO3)c2c1` [Compound 77, (S)-2-(4-(6-((4-chloro-2-fluorobenzyl)oxy)-3,5-difluoropyridin-2-yl)-3-fluorobenzyl)-1-(oxetan-2-ylmethyl)-1H-benzo[d]imidazole-6-carboxylic acid], the Emax on GLP1R [1] was determined as 39.4%. The molecule also yielded an EC50 on GLP1R [2] of less than 15 nM. Further, the “β-arrestin internalization Bmax (POC)” value on GLP1R [3] came to 22.5 POC.

On GLP1R [2], `O=C(O)c1ccc2nc(CN3CC=C(c4csc(OCc5ccc(Cl)cc5F)n4)CC3)n(C[C@@H]3CCO3)c2c1` [Compound 247, (S)-2-((4-(2-((4-chloro-2-fluorobenzyl)oxy)thiazol-4-yl)-3,6-dihydropyridin-1(2H)-yl)methyl)-1-(oxetan-2-ylmethyl)-1H-benzo[d]imidazole-6-carboxylic acid] displayed an EC50 of less than 15 nM. For the same molecule, the “β-arrestin internalization Bmax (POC)” value at GLP1R [3] stood at 26.6 POC.

For `O=C(O)c1ccc2nc(Cc3ccc(-c4ccc(F)c(OCc5ccc(F)cc5F)n4)cc3F)n(C[C@@H]3CCO3)c2n1` [Compound 277, (S)-2-(4-(6-(2,4-difluorobenzyloxy)-5-fluoropyridin-2-yl)-2-fluorobenzyl)-3-(oxetan-2-ylmethyl)-3H-imidazo[4,5-b]pyridine-5-carboxylic acid], on GLP1R [1], the Emax was determined as 39.3 ± 4.96%. At GLP1R [2], this molecule had an EC50 of less than 15 nM. For the same molecule, at GLP1R [3], the “β-arrestin internalization Bmax (POC)” value was 23.0 POC.

Consider `O=C(O)c1ccc2nc(Cc3ccc(-c4cccc(OCc5ccc(Cl)cc5F)n4)c(F)c3)n(C[C@@H]3CCO3)c2c1` [Compound 74, (S)-2-(4-(6-((4-chloro-2-fluorobenzyl)oxy)pyridin-2-yl)-3-fluorobenzyl)-1-(oxetan-2-ylmethyl)-1H-benzo[d]imidazole-6-carboxylic acid], for which, at GLP1R [1] (partial maximum relative effect at the highest concentration tested (top 10 μM), relative to Bmax of GLP-1 (7-37), PathHunter CHO-K1 GLP1R β-Arrestin cells), the “β-arrestin recruitment Bmax (%)” value was found to be 32.1%. On GLP1R [2], this molecule gave an EC50 of less than 15 nM. Further, the “β-arrestin internalization Bmax (POC)” value at GLP1R [3] is on record as 17.0 POC.

As for `O=C(O)c1ccc2nc(Cc3ccc(-c4ccc(F)c(OCc5ccc(Cl)cc5F)n4)c(F)c3)n(C[C@@H]3CCO3)c2n1` [Compound 305, (S)-2-(4-(6-((4-chloro-2-fluorobenzyl)oxy)-5-fluoropyridin-2-yl)-3-fluorobenzyl)-3-(oxetan-2-ylmethyl)-3H-imidazo[4,5-b]pyridine-5-carboxylic acid], on GLP1R [1], the Emax was 31.8%. At GLP1R [2], this molecule gave an EC50 of less than 15 nM.

As for `N#Cc1ccc(COc2ncccc2C2=CCN(Cc3nc4ccc(C(=O)O)cc4n3C[C@@H]3CCO3)CC2)c(F)c1` [Compound 333, (S)-2-((4-(2-(4-cyano-2-fluorobenzyloxy)pyridin-3-yl)-5,6-dihydropyridin-1(2H)-yl)methyl)-1-(oxetan-2-ylmethyl)-1H-benzo[d]imidazole-6-carboxylic acid], the Emax at GLP1R [1] was 9.75%. The molecule further registered an EC50 on GLP1R [2] of 15 to 150 nM.
